From patent US20210228551A1, “THERAPEUTIC AGENT FOR HUMORAL IMMUNITY-RELATED DISEASES IN MATERNOFETAL RELATIONSHIP” (priority 2018, published 2021)
Entries after “also recorded” stand apart in the source; their conditions may differ.

What was measured:
Format in all cases: in vivo, human
Th1 cells = assay: Analysis of Th1 cells and Th2 cells by flow cytometry; settings: maternal blood; week 28 of pregnancy; tacrolimus 4 mg/day oral
Description: For the purpose of evaluating the baseline value of the Th1/Th2 cell ratio, a total of 10 ml of venous blood was collected. Th1 cells and Th2 cells were determined by detecting the production of intracellular interferon (IFN)-γ and IL-4. Specific staining of lymphocytes was performed by incubating whole blood together with anti-CD4-PC5 or anti-CD8-PC5-conjugated monoclonal antibody (rAbs) (Beckman Coulter, Inc., Fullerton, Ca, USA). Red blood cells (RBCs) were removed by hemolysis (using FACS Lysing solution; Becton, Dickinson and Company, BD 134 Biosciences, Franklin Lake, N.J., USA), and lymphocytes were analyzed using flow cytometry (FACSCalibur; Becton, Dickinson and Company). Activated whole blood samples were surface-stained using anti-CD4-PC5-conjugate (Abs), and then RBC hemolysis and specific intracellular staining using FastImmune (trademark) IFN-γ-FITC/IL-4-PE (Becton, Dickinson and Company) were carried out in sequence according to the manufacturer's instructions for use. Th1 cells were defined as CD4^+ lymphocytes accompanied by intracellular IFN-γ but not by intracellular IL-4. Th2 cells were detected as CD4^+ lymphocytes accompanied by intracellular IL-4 but not by intracellular IFN-γ. The ratio of intracellular IFN-γ-positive Th cells with respect to intracellular IL-4-positive Th cells was expressed as the Th1/Th2 cell ratio.

anti-D antibody = assay: Anti-D antibody titer by indirect Coombs test in a patient treated with tacrolimus
Description: (§1) The measurement is carried out by the indirect Coombs test. The indirect Coombs test is a test in which an anti-immunoglobulin antibody is added to a mixture of the blood serum of a patient and the blood of a healthy person to examine whether a hemagglutination reaction occurs (irregular antibody present in the blood serum is detected) (for the Coombs test, see, for example, Nissan Women's Journal Vol. 59, No. 10, N-617-N-623). The patient is a person having blood type A. The patient suffering from a blood type incompatible pregnancy with negative maternal Rho (D) and positive fetal Rho (D) was subjected to the following treatments. That is, at the time of the first pregnancy, anti-D immunoglobulin was not administered during pregnancy, sensitization was effected before delivery, and the anti-D antibody titer at the time of delivery was 8-fold. In week 39, they gave birth by emergency cesarean section due to placental abruption. […] The anti-D antibody titer obtained immediately after the establishment of pregnancy was 4-fold; however, the titer reached 16-fold in week 24 and reached 32-fold in week 26 (FIG. 1, upper part). After that, migration of fetal antigens to the parent's body via the placenta was assumed to further increase, and preparation of plasmapheresis and fetal blood transfusion was initiated in preparation for a rapid increase in the anti-D antibody titer. […] Furthermore, the blood flow velocity in the middle cerebral artery and the estimated body weight of the fetus were measured by fetal ultrasonography.

[1] = system: blood type incompatible pregnancy with negative maternal Rho (D) and positive fetal Rho (D); assay: Treatment of blood type incompatible pregnancy with tacrolimus: fetal and neonatal outcome
Text: as §1, with “The” for “The measurement is carried out by the indirect Coombs test. The indirect Coombs test is a test in which an anti-immunoglobulin antibody is added to a mixture of the blood serum of a patient and the blood of a healthy person to examine whether a hemagglutination reaction occurs (irregular antibody present in the blood serum is detected) (for the Coombs test, see, for example, Nissan Women's Journal Vol. 59, No. 10, N-617-N-623). The”

[2] = system: infecundity considered to be caused by an abnormality in the immune system; assay: Tacrolimus treatment of infecundity: embryo transplantation outcome; settings: tacrolimus 4 mg/day oral (2 mg morning, 2 mg evening); after five unsuccessful embryo transplantations
Description: Two years later, […] hoped to have a second child but suffered from infecundity and was treated for sterility by in vitro fertilization; however, since the treatment was unsuccessful after five embryo transplantations, a close examination of the immune system was conducted. At that time, a marked increase (24.9) in the Th1/Th2 (Th1 32.4, Th2 1.3) ratio was recognized, the illness was judged as infecundity considered to be caused by an abnormality in the immune system, and a tacrolimus treatment was selected.

[3] = Concentration of tacrolimus in the cord blood by chemiluminescence immunoassay (ECLIA); settings: cord blood at delivery, maternal dose 5 mg/day oral
[4] = fetal ultrasonography, tacrolimus 4 then 5 mg/day oral

C=CCC1/C=C(\C)CC(C)CC(OC)C2OC(O)(C(=O)C(=O)N3CCCCC3C(=O)OC(/C(C)=C/C3CCC(O)C(OC)C3)C(C)C(O)CC1=O)C(C)CC2OC (centres unmarked) [tacrolimus, 17-Allyl-1,14-dihydroxy-12-[2-(4-hydroxy-3-methoxycyclohexyl)-1-methylvinyl]-23,25-dimethoxy-13,19,21,27-tetramethyl-11,28-dioxa-4-azatricyclo[22.3.1.04,9]octacos-18-ene-2,3,10,16-tetraone]
Th1 cell population (Th1 cells): showed a tendency of increase again | anti-D antibody titer in the cord blood (anti-D antibody; cord blood at delivery): double | course of anti-D antibody titer / anti-D antibody production (anti-D antibody; maternal, after dose increase to 5 mg/day in week 28 of pregnancy): the titer did not further increase and was stabilized; also recorded: the expected increase in the anti-D antibody titer did not occur at all; also recorded: the production of anti-D antibody was also suppressed | anti-D antibody titer (anti-D antibody; maternal, after dose increase to 5 mg/day oral (week 28) until delivery): 32 fold | anti-D antibody titer (anti-D antibody; maternal, immediately after the establishment of pregnancy, tacrolimus 4 mg/day oral): 4 fold | anti-D antibody titer (anti-D antibody; maternal, week 24 of pregnancy, tacrolimus 4 mg/day oral): 16 fold | anti-D antibody titer (anti-D antibody; maternal, week 26 of pregnancy, tacrolimus 4 mg/day oral): 32 fold | malformations and physical functions of the child ([1]; child at birth, maternal tacrolimus during the entire pregnancy): no external malformations or visceral malformations and no problem with physical functions | birth weight of the child ([1]; delivery on day 2 of week 37): 2834 g | fetal anemia (increased blood flow velocity in the middle cerebral artery) [1, 4]: without observing any fetal anemia; also recorded: fetal anemia did not develop during the entire course of pregnancy | growth of the fetus (estimated body weight) [1, 4]: The body weight smoothly increased; also recorded: growth of the child occurred without any problem | maternal and fetal conditions / course of pregnancy ([1]; tacrolimus 4 then 5 mg/day oral): stable without complications | establishment of pregnancy [2]: Pregnancy was established by a single embryo transplantation | concentration of tacrolimus in the cord blood [3]: lower than or equal to the detection limit value
